Measured values reported in patent US20230399287A1, “NOVEL COMPOUNDS” (Sitryx Therapeutics Limited, priority 2020, published 2023).
pEC50, pIC50: −log10 of the molar value. Where a name gives a salt, the structure may show the parent alone.

Assays:
IL-1β = test: THP-1 AlphaLISA IL-1β cytokine assay; assay type: cell-based; conditions: LPS 24 hr then Nigericin 1 hour
Method: (§1) Measuring Inhibitory Effects on IL-1V and IL-6 Cytokine Output from THP-1s
(§2) The cytokine inhibition profiles of compounds of formula (I) were determined in a differentiated THP-1 cell assay. All assays were performed in RPMI-1640 growth medium (Gibco), supplemented with 10% fetal bovine serum (FBS; Gibco), 1% penicillin-streptomycin and 1% sodium pyruvate unless specified otherwise. The IL-1β and IL-6 cytokine inhibition assays were run in a background of differentiated THP-1 cells as described below. All reagents described were from Sigma-Aldrich unless specified otherwise. Compounds were prepared as 10 mM DMSO stocks.
(§3) THP-1 cells were expanded as a suspension up to 80% confluence in appropriate growth medium. Cells were harvested, suspended, and treated with an appropriate concentration of phorbol 12-myristate 13-acetate (PMA) over a 72 hr period (37° C./5% CO2).
(§4) Following 72 hrs of THP-1 cell incubation, cellular medium was removed and replaced with fresh growth media containing 1% of FBS. Working concentrations of compounds were prepared separately in 10% FBS treated growth medium and pre-incubated with the cells for 30 minutes (37° C./5% CO2). Following the 30 minute compound pre-incubation, THP-1s were treated with an appropriate concentration of LPS and the THP-1s were subsequently incubated for a 24 hr period (37° C./5% CO2). An appropriate final concentration of Nigericin was then dispensed into the THP-1 plates and incubated for 1 hour (37° C./5% CO2) before THP-1 supernatants were harvested and collected in separate polypropylene 96-well holding plates.
(§5) Reagents from each of the IL-1β and IL-6 commercial kits (Perkin Elmer) were prepared and run according to the manufacturer's instructions. Subsequently, fluorescence signal detection in a microplate reader was measured (EnVision® Multilabel Reader, Perkin Elmer).
(§6) Percentage inhibition was calculated per cytokine by normalising the sample data to the high and low controls used within each plate (+/−LPS respectively). Percentage inhibition was then plotted against compound concentration and the 50% inhibitory concentration ([…]) was determined from the resultant concentration-response curve.

IL-6 = test: THP-1 AlphaLISA IL-6 cytokine assay; assay type: cell-based; conditions: LPS 24 hr then Nigericin 1 hour
Method: as §1, §2, §3, §4, §5, §6

hepatocytes [1] = test: Hepatocyte stability assay (human); assay type: in vitro ADME; conditions: 10 μM compound, 60 min
Excerpt: (§7) Defrosted cryo-preserved hepatocytes (viability>70%) were used to determine the metabolic stability of a compound via calculation of intrinsic clearance (Clint; a measure of the removal of a compound from the liver in the absence of blood flow and cell binding). Clearance data are particularly important for in vitro work as they can be used in combination with in vivo data to predict the half-life and oral bioavailability of a drug.
(§8) The metabolic stability in hepatocytes assay involved a time-dependent reaction using both positive and negative controls. The cells must be pre-incubated at 37° C. then spiked with test compound (and positive control); samples taken at pre-determined time intervals were analysed to monitor the change in concentration of the initial drug compound over 60 minutes. A buffer incubation reaction (with no hepatocytes present) acted as a negative control and two cocktail solutions, containing compounds with known high and low clearance values (verapamil/7-hydroxycoumarin and propranolol/diltiazem), acted as positive controls. • 1. The assay was run with a cell concentration of 0.5×10^6 cells/mL in Leibovitz buffer. • 2. All compounds and controls were run in duplicate. • 3. Compound concentration was 10 μM. • 4. All compounds and controls were incubated with both cells and buffer to show turnover is due to hepatic metabolism. • 5. All wells on the incubation plate had 326.7 μL of either cells or buffer added. • 6. Prior to assay, cell and buffer-only incubation plates were preincubated for 10 mins at 37° C. • 7. The assay was initiated by adding compounds, 3.3 μL of 1 mM in 10% DMSO-90% Buffer; final DMSO concentration is 0.1%. • 8. Samples were taken at regular timepoints (0, 5, 10, 20, 40, 60 min) until 60 mins. • 9. Sample volume was 40 μL and added to 160 μL of crash solvent (acetonitrile with internal standard) and stored on ice. • 10. At the end of the assay, the crash plates were centrifuged at 3500 rpm for 20 mins at 4° C. • 11. 80 μL of clear supernatant was removed and mixed with 80 μL of deionised water before being analysed by LC-MS/MS.
(§9) Raw LC-MS/MS data were exported to, and analysed in, Microsoft Excel for determination of intrinsic clearance. The percentage remaining of a compound was monitored using the peak area of the initial concentration as 100%. Intrinsic clearance and half-life values were calculated using a graph of the natural log of percentage remaining versus the time of reaction in minutes. Half-life (min) and intrinsic clearance (Clint in μL min^−1 10^−6 cells) values were calculated using the gradient of the graph (the elimination rate constant, k) and Equations 1 and 2.

hepatocytes [2] = test: Hepatocyte stability assay (mouse); assay type: in vitro ADME; conditions: 10 μM compound, 60 min
Excerpt: as §7, §8, §9

NRF2 = NRF2 +/- GSH activation assay (DiscoverX PathHunter NRF2 translocation kit); assay type: cell-based; conditions: for Emax / NRF2 activation Emax: normalised to dimethyl fumarate high control; for pEC50: U2OS PathHunter cells
[3] = Hepatocyte stability assay (mouse); assay type: in vitro ADME; conditions: mouse, cryopreserved hepatocytes, 10 μM compound, 60 min, read-out: T½
Excerpt: as §7, §8, §9

[4] = Homo sapiens, THP-1, differentiated THP-1 cells

SMILES | pIC50 (IL-1β; [4]) | pIC50 (IL-6; [4]) | also measured
C=C(CC(=O)OC1(c2ccc(C(F)(F)c3ccccc3)cc2)CCC1)C(=O)O [Example 28, 4-(1-(4-(difluoro(phenyl)methyl)phenyl)cyclobutoxy)-2-methylene-4-oxobutanoic acid] | < 4.50 | 4.71 | 
C#CC(OC(=O)CC(=C)C(=O)O)c1ccc(C(F)(F)F)cc1 (single isomer, unassigned) [Example 37, 2-methylene-4-oxo-4-((1-(4-(trifluoromethyl)phenyl)prop-2-yn-1-yl)oxy)butanoic acid] | 4.84 |  | Clint (hepatocytes [1]): <3 μL min^−1 10^−6 cells; T½ (hepatocytes [1]): >460 min; pIC50 (IL-6; differentiated THP-1 cells): < 4.50; Clint (hepatocytes [2]): 34 μL min^−1 10^−6 cells; T½ (hepatocytes [2]): 48 min
C=C(CC(=O)OC1(c2ccc(-c3ccc(F)cc3)cc2)CCC1)C(=O)O [Example 16, 4-(1-(4′-fluoro-[1,1′-biphenyl]-4-yl)cyclobutoxy)-2-methylene-4-oxobutanoic acid] | < 4.00 | 4.67 | 
C=C(CC(=O)OC1(c2ccc(C)c(Cl)c2)CCC1)C(=O)O [Example 14, 4-(1-(3-chloro-4-methylphenyl)cyclobutoxy)-2-methylene-4-oxobutanoic acid] | 4.61 | < 4.00 | 
C#CC(OC(=O)CC(=C)C(=O)O)c1ccc(C(F)(F)F)cc1 (single isomer, unassigned) [Example 38, 2-methylene-4-oxo-4-((1-(4-(trifluoromethyl)phenyl)prop-2-yn-1-yl)oxy)butanoic acid] |  |  | Clint (hepatocytes [1]): 7 μL min^−1 10^−6 cells; T½ (hepatocytes [1]): 183 min; pIC50 (IL-1β; differentiated THP-1 cells): 5.03; pIC50 (IL-6; differentiated THP-1 cells): < 4.00; Clint (hepatocytes [2]): 13 μL min^−1 10^−6 cells; T½ (hepatocytes [2]): 163 min
C=C(CC(=O)OC1(c2ccc(C(F)(F)F)cc2Cl)CCC1)C(=O)O [Example 6, 4-(1-(2-chloro-4-(trifluoromethyl)phenyl)cyclobutoxy)-2-methylene-4-oxobutanoic acid] | 4.34 | < 4.00 | 
C=C(CC(=O)OCc1ccc(C(F)(F)F)cn1)C(=O)O [Example 56, 2-methylene-4-oxo-4-((5-(trifluoromethyl)pyridin-2-yl)methoxy)butanoic acid] | 4.34 | < 4.00 | 
C=C(CC(=O)OC1(c2ccc3cc(Br)ccc3c2)CCC1)C(=O)O [Example 54, 4-(1-(6-bromonaphthalen-2-yl)cyclobutoxy)-2-methylene-4-oxobutanoic acid] | < 4.00 | 4.74 | 
C=C(CC(=O)OC1(c2ccc(C(F)(F)F)cc2)CN(C)C1)C(=O)O [Example 48, 4-((1-methyl-3-(4-(trifluoromethyl)phenyl)azetidin-3-yl)oxy)-2-methylene-4-oxobutanoic acid] | 4.23 | < 4.50 | 
C=C(CC(=O)OC1(c2cnc(C(F)(F)F)cn2)CCC1)C(=O)O [Example 63, 2-methylene-4-oxo-4-(1-(5-(trifluoromethyl)pyrazin-2-yl)cyclobutoxy)butanoic acid] | 4.29 | < 4.50 | 
C=C(CC(=O)O[C@@H](c1ccc(C(F)(F)F)cc1)C(F)(F)F)C(=O)O [Example 33, (S)-2-methylene-4-oxo-4-(2,2,2-trifluoro-1-(4-(trifluoromethyl)phenyl)ethoxy)butanoic acid] | < 4.25 | < 4.20 | 
C=C(CC(=O)OC1(c2cc(F)c(C(F)(F)F)c(F)c2)CCC1)C(=O)O [Example 53, 4-(1-(3,5-difluoro-4-(trifluoromethyl)phenyl)cyclobutoxy)-2-methylene-4-oxobutanoic acid] | 4.53 | < 4.00 | 
C=C(CC(=O)OC(CC)c1ccc(C(F)(F)F)cc1)C(=O)O (stereo not shown) [Example 10, 2-methylene-4-oxo-4-(1-(4-(trifluoromethyl)phenyl)propoxy)butanoic acid] | 5.24 | < 4.00 | Emax (NRF2; +GSH): 13%; pEC50 (NRF2; Homo sapiens, U2OS, +GSH): < 4.00; pEC50 (NRF2; Homo sapiens, U2OS, −GSH): < 4.00; Emax (NRF2; −GSH): 0%
C=C(CC(=O)OC1(c2ccc(C(F)(F)F)cc2)CC(C(F)(F)F)C1)C(=O)O (single isomer, unassigned) [Example 43, 2-methylene-4-oxo-4-(3-(trifluoromethyl)-1-(4-(trifluoromethyl)phenyl)cyclobutoxy)butanoic acid] | 4.08 | < 4.00 | 
C=C(CC(=O)O[C@H](C)c1ccc(C(F)(F)F)cc1)C(=O)O [Example 3, (R)-2-methylene-4-oxo-4-(1-(4-(trifluoromethyl)phenyl)ethoxy)butanoic acid] | 4.47 | < 4.25 | 
C=C(CC(=O)OCc1ccc(C(F)(F)F)c(F)c1)C(=O)O [Example 55, 4-((3-fluoro-4-(trifluoromethyl)benzyl)oxy)-2-methylene-4-oxobutanoic acid] | 4.71 | < 4.00 | Clint (hepatocytes [2]): 29 μL min^−1 10^−6 cells; half-life at 10 μM [3]: 55 min
C=C(CC(=O)OCCCCCCCC)C(=O)O [4-octyl itaconate, reference compound] |  |  | Clint (hepatocytes [1]): 401 μL min^−1 10^−6 cells; T½ (hepatocytes [1]): 4 min; pEC50 (NRF2; +GSH): 4.54; NRF2 activation Emax (NRF2; +GSH): 148%; pEC50 (NRF2; −GSH): 4.66; NRF2 activation Emax (NRF2; −GSH): 165%; pIC50 (IL-1β; differentiated THP-1 cells): 4.42; pIC50 (IL-6; differentiated THP-1 cells): 4.69; Clint (hepatocytes [2]): 351 μL min^−1 10^−6 cells; T½ (hepatocytes [2]): 4 min
COC(=O)/C=C/C(=O)OC [dimethyl fumarate, reference compound] |  | 5.03 | Emax (NRF2; +GSH): 19%; pEC50 (NRF2; Homo sapiens, U2OS, +GSH): < 4.00; pEC50 (NRF2; Homo sapiens, U2OS, −GSH): 5.22; Emax (NRF2; −GSH): 100%; pIC50 (IL-1β; differentiated THP-1 cells): 4.84
C=C(CC(=O)OC)C(=O)OC [dimethyl itaconate, reference compound] | < 4.00 | 4.00 | Emax (NRF2; +GSH): 77%; Emax (NRF2; −GSH): 137%
C=C(CC(=O)OC1(c2ccc(OC(F)(F)F)cc2)CCC1)C(=O)O [Example 15, 2-methylene-4-oxo-4-(1-(4-(trifluoromethoxy)phenyl)cyclobutoxy)butanoic acid] | 4.80 | < 4.00 | 
C=C(CC(=O)OC1(C#Cc2ccc(C(F)(F)F)cc2)CCC1)C(=O)O [Example 60, 2-methylene-4-oxo-4-(1-((4-(trifluoromethyl)phenyl)ethynyl)cyclobutoxy)butanoic acid] | < 4.00 | 4.47 | 
